Measured values as given in PMC7617869, “Molecular glues that inhibit deubiquitylase activity and inflammatory signaling” (Nature Structural & Molecular Biology, 2025).
Values joined by “and” are separate entries in the source; they are usually repeats but may differ in a detail not shown here. Equal values may be shown once. One block for each compound: values may come before it.

How the values were obtained:
Type in all cases: biochemical
[1] = target: T1, panel of 48 purified DUBs (Homo sapiens, UniProt Q15040); experiment: DUB selectivity profiling (DUBprofiler, ubiquitin–rhodamine(110)–glycine); conditions: DUB JOSD1; screening concentration 5 μM
T1 construct: purchased Ubiquigent (DUBprofiler service)
Procedure: (§1) Biochemical selectivity profiling (DUBprofiler) was performed by Ubiquigent with a panel of 48 purified DUBs and ubiquitin–rhodamine(110)–glycine as a fluorescent substrate.

[2] = target: T2, panel of 48 purified DUBs (Homo sapiens, UniProt Q9NQC7); experiment: as above; conditions: DUB CYLD; screening concentration 5 μM; 5 µM
T2 construct: purchased Ubiquigent (DUBprofiler service)
Procedure: as §1

[3] = target: T3, panel of 48 purified DUBs (Homo sapiens, UniProt Q96G74); experiment: as above; conditions: DUB OTUD5(p177S); screening concentration 5 μM; 5 µM
T3 construct: purchased Ubiquigent (DUBprofiler service)
Procedure: as §1

[4] = target: T4, panel of 48 purified DUBs (Homo sapiens, UniProt O75604); experiment: as above; conditions: DUB USP2; screening concentration 5 μM; 5 µM
T4 construct: purchased Ubiquigent (DUBprofiler service)
Procedure: as §1

[5] = target: T5, panel of 48 purified DUBs (Homo sapiens, UniProt Q9H3M9); experiment: as above; conditions: DUB Ataxin3L; screening concentration 5 μM; 5 µM
T5 construct: purchased Ubiquigent (DUBprofiler service)
Procedure: as §1

[6] = target: T6, panel of 48 purified DUBs (Homo sapiens, UniProt P35125); experiment: as above; conditions: DUB USP6; screening concentration 5 μM; 5 µM
T6 construct: purchased Ubiquigent (DUBprofiler service)
Procedure: as §1

[7] = target: T7, panel of 48 purified DUBs (Homo sapiens, UniProt Q9Y2K6); experiment: as above; conditions: DUB USP20; screening concentration 5 μM; 5 µM
T7 construct: purchased Ubiquigent (DUBprofiler service)
Procedure: as §1

[8] = target: T8, panel of 48 purified DUBs (Homo sapiens, UniProt P45974); experiment: as above; conditions: DUB USP5; screening concentration 5 μM; 5 µM
T8 construct: purchased Ubiquigent (DUBprofiler service)
Procedure: as §1

[9] = target: T9, panel of 48 purified DUBs (Homo sapiens, UniProt Q5VVQ6); experiment: as above; conditions: DUB OTU1; screening concentration 5 μM
T9 construct: purchased Ubiquigent (DUBprofiler service)
Procedure: as §1

[10] = target: T10, panel of 48 purified DUBs (Homo sapiens, UniProt Q9P275); experiment: as above; conditions: DUB USP36; screening concentration 5 μM; 5 µM
T10 construct: purchased Ubiquigent (DUBprofiler service)
Procedure: as §1

[11] = target: T11, panel of 48 purified DUBs (Homo sapiens, UniProt Q9UPU5); experiment: as above; conditions: DUB USP24; screening concentration 5 μM; 5 µM
T11 construct: purchased Ubiquigent (DUBprofiler service)
Procedure: as §1

[12] = target: T12, panel of 48 purified DUBs (Homo sapiens, UniProt Q13107); experiment: as above; conditions: DUB USP4; screening concentration 5 μM
T12 construct: purchased Ubiquigent (DUBprofiler service)
Procedure: as §1

[13] = target: T13, panel of 48 purified DUBs (Homo sapiens, UniProt Q8NB14); experiment: as above; conditions: DUB USP38; screening concentration 5 μM; 5 µM
T13 construct: purchased Ubiquigent (DUBprofiler service)
Procedure: as §1

BRISC BRCC36 R167A+L169A = BRISC BRCC36 R167A+L169A (Homo sapiens, UniProt P46736+Q15018+Q9NXR7, L169A/R167A); experiment: BRISC mutant IQF assay: BRCC36 R167A+L169A; conditions: read-out: Normalised V0
Text: Supplement 41594_2025_1517_MOESM5_ESM.xlsx, sheet "Fig. 4c" | column: Normalised V0

BRISC BRCC45 D248R = BRISC BRCC45 D248R (Homo sapiens, UniProt P46736+Q15018+Q9NXR7, D248R); experiment: BRISC mutant IQF assay: BRCC45 D248R
Procedure: (§2) IQF assays were performed in DUB reaction buffer containing 50 mM HEPES–NaOH pH 7.0, 100 mM NaCl, 0.1 mg ml^−1 BSA, 1 mM DTT and 0.03% v/v Brij-35. […] The final concentration of BRISC WT, all BRISC mutants, HsBRISCΔLoop, MmBRISC and DrBRISCΔNΔC was 1 nM. Other enzymes were tested at the following concentrations: 5 nM ARISC (FL), 10 nM CfBRISCΔNΔC, 250 nM AMSH* (ref. [43]), 500 nM USP2 and 1 μM trypsin (Sigma, 9002-07-7). For Michaelis–Menten experiments, 1 nM BRISC with 0–1 μM IQF K63-linked diubiquitin substrate was used. Michaelis–Menten analyses and Lineweaver–Burk plots were calculated using GraphPad Prism (version 9.0).
(§3) To assess enzymatic activity, BRISC complexes were diluted to concentrations between 1 nM and 50 nM. […] Then, 20-μl enzyme reactions were carried out in 384-well black flat-bottom low-flange plates (Corning, 35373). DUB activity was measured using IQF K63-linked diubiquitin (LifeSensors, DU6303) at 50 nM. Cleaved diubiquitin was monitored by measuring fluorescence intensity (excitation, 544 nm; emission, 575 nm; dichroic mirror, 560 nm). Fluorescence intensity was measured every minute for 30 min at 30 °C. Fluorescence intensity units were plotted against time to generate a linear reaction progress curve, where the initial velocity (V0) corresponds to the gradient of the curve (typically achieved within 15 min). IC50 values were calculated using the GraphPad Prism (version 9.0) built-in dose–response equation for inhibitor concentration versus response (variable slope).

MmBRISC = target: T14, MmBRISC (Mus musculus, UniProt P46737+Q3TCJ1+Q8K3W0); experiment: MmBRISC IQF DUB activity assay; conditions: read-out: Normalised V0
T14 construct: made in house; host or cells: Trichoplusia ni cells (Bac-to-Bac, pFastBac-HTB)
Procedure: as §2, §3

T14 sequence (P46737 whole entry): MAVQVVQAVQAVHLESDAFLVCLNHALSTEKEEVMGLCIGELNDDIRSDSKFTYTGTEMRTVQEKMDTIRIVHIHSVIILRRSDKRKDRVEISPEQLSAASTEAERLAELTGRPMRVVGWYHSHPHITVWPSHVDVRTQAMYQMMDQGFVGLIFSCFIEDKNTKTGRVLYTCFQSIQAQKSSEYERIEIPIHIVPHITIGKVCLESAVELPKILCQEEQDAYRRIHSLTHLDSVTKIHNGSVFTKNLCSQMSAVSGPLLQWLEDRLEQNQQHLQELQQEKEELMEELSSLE
T14 sequence (Q3TCJ1 whole entry): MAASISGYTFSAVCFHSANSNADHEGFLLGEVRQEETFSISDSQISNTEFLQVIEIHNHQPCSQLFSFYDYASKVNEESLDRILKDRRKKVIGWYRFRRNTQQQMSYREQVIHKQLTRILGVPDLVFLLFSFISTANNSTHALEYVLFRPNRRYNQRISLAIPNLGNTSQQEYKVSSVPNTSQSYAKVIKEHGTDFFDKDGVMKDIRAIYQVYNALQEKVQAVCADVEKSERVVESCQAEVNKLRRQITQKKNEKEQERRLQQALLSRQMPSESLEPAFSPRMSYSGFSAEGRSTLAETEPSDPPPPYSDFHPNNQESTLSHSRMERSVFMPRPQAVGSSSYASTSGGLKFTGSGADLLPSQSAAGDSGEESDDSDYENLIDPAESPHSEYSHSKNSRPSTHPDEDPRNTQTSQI
T14 sequence (Q8K3W0 whole entry): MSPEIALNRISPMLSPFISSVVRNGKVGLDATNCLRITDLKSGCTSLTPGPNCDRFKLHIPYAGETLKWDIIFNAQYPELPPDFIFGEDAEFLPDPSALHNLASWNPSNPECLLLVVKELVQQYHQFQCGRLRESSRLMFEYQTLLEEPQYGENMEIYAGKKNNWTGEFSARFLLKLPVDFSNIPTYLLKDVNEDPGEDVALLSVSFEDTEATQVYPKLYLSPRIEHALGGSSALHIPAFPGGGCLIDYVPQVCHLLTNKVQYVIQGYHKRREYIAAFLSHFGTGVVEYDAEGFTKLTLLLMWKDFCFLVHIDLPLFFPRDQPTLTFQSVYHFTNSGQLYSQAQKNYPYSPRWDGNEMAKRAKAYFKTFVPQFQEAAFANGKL
T14 sequence (Q3UI43 whole entry partner): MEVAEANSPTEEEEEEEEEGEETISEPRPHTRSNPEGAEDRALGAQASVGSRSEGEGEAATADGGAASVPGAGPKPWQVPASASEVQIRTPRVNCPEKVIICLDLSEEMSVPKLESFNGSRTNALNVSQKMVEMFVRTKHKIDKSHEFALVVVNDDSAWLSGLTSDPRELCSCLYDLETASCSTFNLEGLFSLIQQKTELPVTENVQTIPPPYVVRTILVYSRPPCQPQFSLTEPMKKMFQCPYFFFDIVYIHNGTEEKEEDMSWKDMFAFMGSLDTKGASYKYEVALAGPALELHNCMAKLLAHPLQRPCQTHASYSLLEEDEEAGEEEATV
T7 sequence (Q9Y2K6 whole entry): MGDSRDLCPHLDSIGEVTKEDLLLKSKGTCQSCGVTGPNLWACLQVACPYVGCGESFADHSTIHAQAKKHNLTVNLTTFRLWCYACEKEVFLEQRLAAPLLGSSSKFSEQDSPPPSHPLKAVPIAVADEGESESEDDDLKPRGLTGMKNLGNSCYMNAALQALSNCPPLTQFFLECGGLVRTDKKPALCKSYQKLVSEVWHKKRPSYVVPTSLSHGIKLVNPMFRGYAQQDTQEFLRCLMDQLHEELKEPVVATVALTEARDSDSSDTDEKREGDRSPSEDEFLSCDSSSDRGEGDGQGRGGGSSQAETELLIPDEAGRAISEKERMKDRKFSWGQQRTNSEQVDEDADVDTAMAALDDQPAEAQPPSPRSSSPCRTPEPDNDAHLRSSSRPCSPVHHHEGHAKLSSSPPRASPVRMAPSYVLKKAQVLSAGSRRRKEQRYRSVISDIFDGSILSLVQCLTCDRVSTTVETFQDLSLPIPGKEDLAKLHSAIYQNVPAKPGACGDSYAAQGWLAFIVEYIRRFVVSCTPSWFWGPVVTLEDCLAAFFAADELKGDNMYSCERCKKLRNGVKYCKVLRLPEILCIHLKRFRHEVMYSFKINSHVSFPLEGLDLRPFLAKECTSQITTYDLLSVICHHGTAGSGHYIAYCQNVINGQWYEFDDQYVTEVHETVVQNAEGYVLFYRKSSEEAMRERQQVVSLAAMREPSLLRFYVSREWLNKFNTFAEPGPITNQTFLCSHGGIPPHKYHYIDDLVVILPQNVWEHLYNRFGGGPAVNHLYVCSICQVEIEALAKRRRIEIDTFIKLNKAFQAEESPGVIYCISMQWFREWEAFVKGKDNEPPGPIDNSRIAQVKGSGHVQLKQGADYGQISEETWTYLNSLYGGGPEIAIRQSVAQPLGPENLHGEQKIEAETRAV
T13 sequence (Q8NB14 whole entry): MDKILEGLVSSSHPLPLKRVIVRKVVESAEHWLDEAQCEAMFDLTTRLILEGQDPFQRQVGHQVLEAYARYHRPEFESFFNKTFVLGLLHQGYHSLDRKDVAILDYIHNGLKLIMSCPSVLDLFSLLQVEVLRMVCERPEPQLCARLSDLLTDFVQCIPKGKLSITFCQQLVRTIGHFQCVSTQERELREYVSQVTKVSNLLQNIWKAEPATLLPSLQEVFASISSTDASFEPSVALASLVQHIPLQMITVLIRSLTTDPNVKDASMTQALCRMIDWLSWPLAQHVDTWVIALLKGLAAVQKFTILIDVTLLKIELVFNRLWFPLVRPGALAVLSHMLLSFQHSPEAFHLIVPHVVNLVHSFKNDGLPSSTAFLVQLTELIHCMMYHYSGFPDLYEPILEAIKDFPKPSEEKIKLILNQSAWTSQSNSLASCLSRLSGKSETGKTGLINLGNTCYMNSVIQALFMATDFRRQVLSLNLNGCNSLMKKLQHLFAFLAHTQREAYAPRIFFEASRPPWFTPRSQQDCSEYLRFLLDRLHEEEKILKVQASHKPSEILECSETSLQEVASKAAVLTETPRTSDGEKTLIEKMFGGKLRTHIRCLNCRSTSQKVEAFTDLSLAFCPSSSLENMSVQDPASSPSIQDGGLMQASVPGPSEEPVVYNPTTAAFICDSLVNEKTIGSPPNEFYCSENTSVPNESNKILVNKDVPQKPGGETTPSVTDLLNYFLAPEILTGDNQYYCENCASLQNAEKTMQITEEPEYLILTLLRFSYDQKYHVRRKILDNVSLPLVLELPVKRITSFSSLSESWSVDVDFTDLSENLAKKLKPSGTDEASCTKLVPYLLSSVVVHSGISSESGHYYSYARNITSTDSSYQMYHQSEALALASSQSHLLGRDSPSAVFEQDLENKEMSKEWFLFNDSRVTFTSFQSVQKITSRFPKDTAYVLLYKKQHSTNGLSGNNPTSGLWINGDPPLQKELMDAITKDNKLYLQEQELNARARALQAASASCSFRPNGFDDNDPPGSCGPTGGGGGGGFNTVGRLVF
T3 sequence (Q96G74 whole entry): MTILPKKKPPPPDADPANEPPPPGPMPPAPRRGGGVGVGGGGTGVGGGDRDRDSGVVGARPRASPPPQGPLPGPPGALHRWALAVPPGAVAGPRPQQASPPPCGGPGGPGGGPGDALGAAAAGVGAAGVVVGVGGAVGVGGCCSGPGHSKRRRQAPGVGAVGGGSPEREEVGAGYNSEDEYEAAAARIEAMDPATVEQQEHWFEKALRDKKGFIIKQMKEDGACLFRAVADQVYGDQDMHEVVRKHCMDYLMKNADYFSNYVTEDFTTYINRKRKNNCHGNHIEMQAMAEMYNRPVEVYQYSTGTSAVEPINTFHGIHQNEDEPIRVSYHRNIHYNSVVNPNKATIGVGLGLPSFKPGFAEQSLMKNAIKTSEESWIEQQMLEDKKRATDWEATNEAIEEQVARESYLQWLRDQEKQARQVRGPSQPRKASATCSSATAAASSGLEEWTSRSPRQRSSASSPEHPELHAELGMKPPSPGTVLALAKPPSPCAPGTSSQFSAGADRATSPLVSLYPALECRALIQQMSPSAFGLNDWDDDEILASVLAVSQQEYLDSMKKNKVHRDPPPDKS
T2 sequence (Q9NQC7 whole entry): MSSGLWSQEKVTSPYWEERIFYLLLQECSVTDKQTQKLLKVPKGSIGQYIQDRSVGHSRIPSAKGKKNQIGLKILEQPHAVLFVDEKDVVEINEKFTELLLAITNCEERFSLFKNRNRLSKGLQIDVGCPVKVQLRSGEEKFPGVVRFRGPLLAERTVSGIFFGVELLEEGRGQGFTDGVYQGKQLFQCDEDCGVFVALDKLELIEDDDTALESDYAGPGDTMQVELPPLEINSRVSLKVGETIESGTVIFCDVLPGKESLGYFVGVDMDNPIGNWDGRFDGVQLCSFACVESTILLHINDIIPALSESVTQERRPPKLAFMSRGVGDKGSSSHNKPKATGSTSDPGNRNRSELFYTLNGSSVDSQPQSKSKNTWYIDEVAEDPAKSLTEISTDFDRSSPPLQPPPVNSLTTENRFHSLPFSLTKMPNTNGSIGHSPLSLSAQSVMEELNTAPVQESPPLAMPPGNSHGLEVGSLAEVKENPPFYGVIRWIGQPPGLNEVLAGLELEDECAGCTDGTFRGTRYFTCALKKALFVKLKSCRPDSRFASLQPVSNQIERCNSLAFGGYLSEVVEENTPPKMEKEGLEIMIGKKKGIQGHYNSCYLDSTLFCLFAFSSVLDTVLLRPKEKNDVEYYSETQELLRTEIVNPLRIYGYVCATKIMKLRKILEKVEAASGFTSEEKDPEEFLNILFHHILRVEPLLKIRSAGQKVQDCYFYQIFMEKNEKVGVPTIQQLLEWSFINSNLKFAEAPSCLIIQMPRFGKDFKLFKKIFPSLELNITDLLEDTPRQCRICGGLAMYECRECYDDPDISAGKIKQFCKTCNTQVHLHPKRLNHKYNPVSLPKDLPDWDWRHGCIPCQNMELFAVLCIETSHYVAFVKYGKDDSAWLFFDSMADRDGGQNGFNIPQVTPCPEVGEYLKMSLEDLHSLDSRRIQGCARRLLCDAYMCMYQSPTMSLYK

Activity (% control) [1]: 67 % control
Activity (% control) [2]: 104 % control and 112 % control
Activity (% control) [3]: 96 % control and 99 % control
Activity (% control) [4]: 86 % control and 84 % control
Activity (% control) [6]: 92 % control and 95 % control
Activity (% control) [7]: 93 % control and 101 % control
Activity (% control) [8]: 103 % control and 105 % control
Activity (% control) [9]: 84 % control
Activity (% control) [10]: 108 % control and 117 % control
Activity (% control) [11]: 98 % control and 99 % control
Activity (% control) [12]: 101 % control
Activity (% control) [13]: 94 % control and 92 % control
Compound: O=C(NC1CCNCC1)c1nn(C(=O)c2c(Cl)cccc2Cl)cc1NC(=O)c1c(Cl)cccc1Cl [JMS-175-2]
Activity (% control) [5]: 98 % control and 95 % control

remaining activity at 0.35 µM (BRISC BRCC36 R167A+L169A; FX-171-C 0.35 μM): 98.6%
remaining activity at 25 µM (BRISC BRCC36 R167A+L169A; FX-171-C 25 μM): 85.6%
IC50 (BRISC BRCC45 D248R): > 100 µM
inhibitor sensitivity vs BRISC WT (BRISC BRCC45 D248R): reduced sensitivity to inhibition
remaining activity at 0.0035 µM (BRISC BRCC45 D248R; FX-171-C 0.0035 μM, read-out: Normalised V0): 91.7%
remaining activity at 0.035 µM (BRISC BRCC45 D248R; FX-171-C 0.035 μM, read-out: Normalised V0): 97.4%
remaining activity at 0.35 µM (BRISC BRCC45 D248R; FX-171-C 0.35 μM, read-out: Normalised V0): 91.7%
remaining activity at 0.02 µM (MmBRISC; FX-171-C 0.02 μM): 101%
remaining activity at 0.0399999 µM (MmBRISC; FX-171-C 0.0399999 μM): 89.4%
remaining activity at 0.0599997 µM (MmBRISC; FX-171-C 0.0599997 μM): 106%
remaining activity at 0.0799994 µM (MmBRISC; FX-171-C 0.0799994 μM): 102%
remaining activity at 0.119998 µM (MmBRISC; FX-171-C 0.119998 μM): 107%
remaining activity at 0.199996 µM (MmBRISC; FX-171-C 0.199996 μM): 106%
remaining activity at 0.499975 µM (MmBRISC; FX-171-C 0.499975 μM): 94.9%
remaining activity at 0.799937 µM (MmBRISC; FX-171-C 0.799937 μM): 98%
remaining activity at 1.25984 µM (MmBRISC; FX-171-C 1.25984 μM): 89.8%
remaining activity at 1.9996 µM (MmBRISC; FX-171-C 1.9996 μM): 97.6%
remaining activity at 3.159 µM (MmBRISC; FX-171-C 3.159 μM): 92.5%
remaining activity at 5.19739 µM (MmBRISC; FX-171-C 5.19739 μM): 87.1%
remaining activity at 7.99364 µM (MmBRISC; FX-171-C 7.99364 μM): 68.2%
remaining activity at 12.7839 µM (MmBRISC; FX-171-C 12.7839 μM): 57.7%
remaining activity at 19.96 µM (MmBRISC; FX-171-C 19.96 μM): 43.1%
remaining activity at 31.4999 µM (MmBRISC; FX-171-C 31.4999 μM): 34%
remaining activity at 50.147 µM (MmBRISC; FX-171-C 50.147 μM): 24.4%
remaining activity at 79.7601 µM (MmBRISC; FX-171-C 79.7601 μM): 22.6%
remaining activity at 125.99 µM (MmBRISC; FX-171-C 125.99 μM): 12%
Compound: O=C(NC1C2CNCC21)c1nn(C(=O)c2c(Cl)cccc2Cl)cc1NC(=O)c1c(Cl)cccc1Cl (stereo not drawn) [FX-171-C]
